Reference: patent publication US20230095520A1, “PHARMACEUTICAL COMPOSITION FOR PREVENTING OR TREATING CANCER COMPRISING AZOLE DERIVATIVES OR PHARMACEUTICALLY ACCEPTABLE SALT THEREOF” (Yungjin Pharm. Co., Ltd., priority 2020, published 2023)

Experiments:
Assay in all cases: Cancer cell proliferation GI50 (CCK-8)
Assay type in all cases: cell-based
NALM-20 = conditions: NALM-20, B cell acute lymphocytic leukemia, 72 hours
Experimental: (§1) In this example, in order to confirm the proliferation inhibitory effect on various cancer cells, Compound 121 was tested as follows.
(§2) The cells were cultured with a culture medium shown in Table 9 below at 37° C. in a humidified condition in the presence of 5% CO2. Each cell cultured in a 96-well cell culture plate was treated with the compound of the present invention and cultured for 72 hours.

U937 = conditions: Homo sapiens, U-937, U937, acute myeloid leukemia, 72 hours
Experimental: as §1, §2

SR = conditions: Homo sapiens, immunoblastic large cell lymphoma, 72 hours
Experimental: as §1, §2

MOLM/CYT = conditions: acute myeloid leukemia, 72 hours
Experimental: as §1, §2

MOLM-13 = conditions: Homo sapiens, MOLM-13, acute myeloid leukemia (AML), 72 hours
Experimental: as §1, §2

OVCAR-3 = conditions: Homo sapiens, OVCAR-3, ovarian cancer, 72 hours
Experimental: as §1, §2

MEG-01 = conditions: Homo sapiens, MEG-01, chronic myeloid leukemia, 72 hours
Experimental: as §1, §2

JURKAT = conditions: Homo sapiens, T cell acute lymphocytic leukemia, 72 hours
Experimental: as §1, §2

HCC1937 = conditions: Homo sapiens, HCC1937, breast cancer, 72 hours
Experimental: as §1, §2

KASUMI-2 = conditions: KASUMI-2, B cell acute lymphocytic leukemia, 72 hours
Experimental: as §1, §2

BDCM = conditions: acute myeloid leukemia, 72 hours
Experimental: as §1, §2

MOLM-14 = conditions: Homo sapiens, MOLM-14, acute myeloid leukemia, 72 hours
Experimental: as §1, §2

MOLT4 = conditions: Homo sapiens, MOLT-4, MOLT4, acute lymphocytic leukemia, 72 hours
Experimental: as §1, §2

SKOV-3 = conditions: Homo sapiens, SK-OV-3, SKOV-3, ovarian cancer, 72 hours
Experimental: as §1, §2

MOLM/DEC-5 = conditions: MOLM/DEC-5, acute myeloid leukemia, 72 hours
Experimental: as §1, §2

TOM-1 = conditions: TOM-1, B cell acute lymphocytic leukemia, 72 hours
Experimental: as §1, §2

RPMI-8226 = conditions: Homo sapiens, RPMI-8226, multiple myeloma, 72 hours
Experimental: as §1, §2

BxPC-3 = conditions: Homo sapiens, BxPC-3, pancreatic cancer, 72 hours
Experimental: as §1, §2

KU-812 = conditions: Homo sapiens, KU812, KU-812, chronic myeloid leukemia, 72 hours
Experimental: as §1, §2

HCC70 = conditions: Homo sapiens, HCC70, breast cancer, 72 hours
Experimental: as §1, §2

LNCaP = conditions: Homo sapiens, prostate cancer, 72 hours
Experimental: as §1, §2

T47D = conditions: Homo sapiens, breast cancer, 72 hours
Experimental: as §1, §2

DAUDI = conditions: Homo sapiens, Burkitt lymphoma, 72 hours
Experimental: as §1, §2

RCH-ACV = conditions: B cell acute lymphocytic leukemia, 72 hours
Experimental: as §1, §2

K562 = conditions: Homo sapiens, K562, chronic myeloid leukemia (CML), 72 hours
Experimental: as §1, §2

MV-4-11 = conditions: Homo sapiens, MV4-11, MV-4-11, acute myeloid leukemia, 72 hours
Experimental: as §1, §2

A549 = conditions: Homo sapiens, A549, lung cancer, 72 hours
Experimental: as §1, §2

SKM-1 = conditions: Homo sapiens, SKM-1, acute myeloid leukemia, 72 hours
Experimental: as §1, §2

THP/DEC-2 = conditions: THP/DEC-2, acute myeloid leukemia, 72 hours
Experimental: as §1, §2

SK-BR-3 = conditions: Homo sapiens, SK-BR-3, breast cancer, 72 hours
Experimental: as §1, §2

MOLM/AZA-1 = conditions: MOLM/AZA-1, acute myeloid leukemia, 72 hours
Experimental: as §1, §2

KG-1 = conditions: Homo sapiens, KG-1, acute myeloid leukemia, 72 hours
Experimental: as §1, §2

MCF-7 = conditions: Homo sapiens, MCF7, MCF-7, breast cancer, 72 hours
Experimental: as §1, §2

HeLa = conditions: Homo sapiens, cervical cancer, 72 hours
Experimental: as §1, §2

CCRF-CEM = conditions: Homo sapiens, acute lymphocytic leukemia, 72 hours
Experimental: as §1, §2

HCT116 = conditions: Homo sapiens, HCT-116, HCT116, large intestine cancer, 72 hours
Experimental: as §1, §2

THP-1 = conditions: Homo sapiens, THP-1, acute myeloid leukemia, 72 hours
Experimental: as §1, §2

GI50 (NALM-20): 18.6 nM
GI50 (U937): 2.43 nM
GI50 (SR): 5.83 nM
GI50 (MOLM/CYT): 0.94 nM
GI50 (MOLM-13): 19 nM
GI50 (OVCAR-3): 4.8 nM
GI50 (MEG-01): 4 nM
GI50 (JURKAT): 17.5 nM
GI50 (HCC1937): 14.6 nM
GI50 (KASUMI-2): 6.26 nM
GI50 (BDCM): 2.68 nM
GI50 (MOLM-14): 2.77 nM
GI50 (MOLT4): 4.51 nM
GI50 (SKOV-3): 9.6 nM
GI50 (MOLM/DEC-5): 14.9 nM
GI50 (TOM-1): 4.36 nM
GI50 (RPMI-8226): 16.4 nM
GI50 (BxPC-3): 6.7 nM
GI50 (KU-812): 3.64 nM
GI50 (LNCaP): 8 nM
GI50 (T47D): 19.3 nM
GI50 (DAUDI): 9.15 nM
GI50 (RCH-ACV): 4.1 nM
GI50 (K562): 18.9 nM
GI50 (MV-4-11): 11.8 nM
GI50 (A549): 8.6 nM
GI50 (SKM-1): 25 nM
GI50 (THP/DEC-2): 3.6 nM
GI50 (SK-BR-3): 10.6 nM
GI50 (MOLM/AZA-1): 13.2 nM
GI50 (KG-1): 29 nM
GI50 (MCF-7): 15.1 nM
GI50 (HeLa): 10.8 nM
GI50 (CCRF-CEM): 15.6 nM
GI50 (HCT116): 4 nM
GI50 (THP-1): 1.95 nM
SMILES: CCc1cnc(NC(=O)[C@@H](C)c2cccc(-c3cnc(NC(=O)/C=C/CN(C)C)c(C#N)c3)c2)s1 [Compound 121, (S,E)-N-(3-cyano-5-(3-(1-((5-ethylthiazol-2-yl)amino)-1-oxopropan-2-yl)phenyl)pyridin-2-yl)-4-(dimethylamino)but-2-enamide]
GI50 (HCC70): 11.2 nM
